From ChEMBL document CHEMBL4261619, “Sentulic acid isolated from Sandoricum koetjape Merr attenuates lipopolysaccharide and interferon gamma co-stimulated nitric oxide production in murine macrophage RAW264 cells” (Bioorg Med Chem Lett, 2018)
The source made the active and inactive calls. The calls are words filed in the database; no cut-off is given here.

Columns and labels:
Assay type in all cases: cell-based
[1] = biological target: T1, Toll-like receptor 4 (Mus musculus) (UniProt Q9QUK6); assay: Inhibition of LPS binding to TLR4 in IFNgamma-stimulated mouse RAW264.7 cells assessed as effect on ratio of phosphorylated NFkappaB to total NFkappaB at 100 uM measured after 120 mins by Western blot analysis relative to beta-actin (reference value: 1.2)
T1 sequence (whole entry): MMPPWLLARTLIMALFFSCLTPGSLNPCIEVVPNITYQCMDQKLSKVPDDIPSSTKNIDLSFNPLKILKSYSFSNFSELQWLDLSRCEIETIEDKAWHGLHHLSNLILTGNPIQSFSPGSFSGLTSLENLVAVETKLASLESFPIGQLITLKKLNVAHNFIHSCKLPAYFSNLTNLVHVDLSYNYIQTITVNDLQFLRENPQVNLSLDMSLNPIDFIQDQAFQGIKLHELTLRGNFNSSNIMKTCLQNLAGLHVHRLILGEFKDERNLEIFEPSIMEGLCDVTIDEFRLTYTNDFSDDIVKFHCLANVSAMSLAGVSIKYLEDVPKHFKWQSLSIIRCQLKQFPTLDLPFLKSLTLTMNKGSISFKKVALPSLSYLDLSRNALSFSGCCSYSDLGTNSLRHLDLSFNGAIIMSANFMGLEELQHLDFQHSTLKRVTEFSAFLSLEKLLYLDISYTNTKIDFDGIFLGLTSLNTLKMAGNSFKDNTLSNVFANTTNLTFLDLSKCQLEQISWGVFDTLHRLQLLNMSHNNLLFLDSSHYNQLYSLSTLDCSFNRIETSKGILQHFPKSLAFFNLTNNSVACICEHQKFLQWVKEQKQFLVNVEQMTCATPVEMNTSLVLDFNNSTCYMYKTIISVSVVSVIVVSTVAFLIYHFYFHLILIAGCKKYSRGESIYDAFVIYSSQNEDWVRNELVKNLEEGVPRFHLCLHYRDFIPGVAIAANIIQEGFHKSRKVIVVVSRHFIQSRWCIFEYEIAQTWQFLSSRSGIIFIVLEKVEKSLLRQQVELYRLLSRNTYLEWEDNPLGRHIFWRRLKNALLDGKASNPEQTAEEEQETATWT

[2] = biological target: T1, Toll-like receptor 4 (Mus musculus); assay: Inhibition of LPS binding to TLR4 in IFNgamma-stimulated mouse RAW264.7 cells assessed as suppression of TNFalpha mRNA expression at 100 uM by qRT-PCR analysis
[3] = biological target: T1, Toll-like receptor 4 (Mus musculus); assay: Inhibition of LPS binding to TLR4 in IFNgamma-stimulated mouse RAW264.7 cells assessed as effect on ratio of phosphorylated TAK1 to total TAK1 at 100 uM measured after 120 mins by Western blot analysis relative to beta-actin (reference value: 3)
[4] = biological target: T1, Toll-like receptor 4 (Mus musculus); assay: Inhibition of LPS binding to TLR4 in IFNgamma-stimulated mouse RAW264.7 cells assessed as effect on ratio of phosphorylated TAK1 to total TAK1 at 100 uM measured after 30 mins by Western blot analysis relative to beta-actin (reference value: 3.7)
[5] = biological target: T1, Toll-like receptor 4 (Mus musculus); assay: Inhibition of LPS binding to TLR4 in IFNgamma-stimulated mouse RAW264.7 cells assessed as effect on ratio of phosphorylated AKT to total AKT at 100 uM measured after 15 mins by Western blot analysis relative to beta-actin (reference value: 1.2)
[6] = biological target: T1, Toll-like receptor 4 (Mus musculus); assay: Inhibition of LPS binding to TLR4 in IFNgamma-stimulated mouse RAW264.7 cells assessed as effect on ratio of phosphorylated NFkappaB to total NFkappaB at 100 uM measured after 60 mins by Western blot analysis relative to beta-actin (reference value: 1)
[7] = biological target: T1, Toll-like receptor 4 (Mus musculus); assay: Inhibition of LPS binding to TLR4 in IFNgamma-stimulated mouse RAW264.7 cells assessed as effect on ratio of phosphorylated TAK1 to total TAK1 at 100 uM measured after 60 mins by Western blot analysis relative to beta-actin (reference value: 3.1)
[8] = biological target: T1, Toll-like receptor 4 (Mus musculus); assay: Inhibition of LPS binding to TLR4 in IFNgamma-stimulated mouse RAW264.7 cells assessed as effect on ratio of phosphorylated ERK to total ERK at 100 uM measured after 120 mins by Western blot analysis relative to beta-actin (reference value: 3)
[9] = biological target: T1, Toll-like receptor 4 (Mus musculus); assay: Inhibition of LPS binding to TLR4 in IFNgamma-stimulated mouse RAW264.7 cells assessed as effect on ratio of phosphorylated ERK to total ERK at 100 uM measured after 15 mins by Western blot analysis relative to beta-actin (reference value: 0.8)
[10] = system: RAW264.7; assay: Inhibition of IFNgamma binding to IFNGR in LPS-stimulated mouse RAW264.7 cells assessed as effect on ratio of phosphorylated Stat1 to total Stat1 at 100 uM measured after 120 mins by Western blot analysis relative to beta-actin (reference value: 4.1)
[11] = biological target: T1, Toll-like receptor 4 (Mus musculus); assay: Inhibition of LPS binding to TLR4 in IFNgamma-stimulated mouse RAW264.7 cells assessed as effect on ratio of phosphorylated JNK to total JNK at 100 uM measured after 120 mins by Western blot analysis relative to beta-actin (reference value: 1)
[12] = biological target: T1, Toll-like receptor 4 (Mus musculus); assay: Inhibition of LPS binding to TLR4 in IFNgamma-stimulated mouse RAW264.7 cells assessed as effect on ratio of phosphorylated p38 to total p38 at 100 uM measured after 15 mins by Western blot analysis relative to beta-actin (reference value: 4.9)
[13] = biological target: T1, Toll-like receptor 4 (Mus musculus); assay: Inhibition of LPS binding to TLR4 in IFNgamma-stimulated mouse RAW264.7 cells assessed as suppression of iNOS mRNA expression at 100 uM by qRT-PCR analysis
[14] = biological target: T1, Toll-like receptor 4 (Mus musculus); assay: Inhibition of LPS binding to TLR4 in IFNgamma-stimulated mouse RAW264.7 cells assessed as effect on ratio of phosphorylated AKT to total AKT at 100 uM measured after 30 mins by Western blot analysis relative to beta-actin (reference value: 1.4)
[15] = biological target: T1, Toll-like receptor 4 (Mus musculus); assay: Inhibition of LPS binding to TLR4 in IFNgamma-stimulated mouse RAW264.7 cells assessed as reduction in COX2 expression at 100 uM by Western blot analysis
[16] = biological target: T1, Toll-like receptor 4 (Mus musculus); assay: Inhibition of LPS binding to TLR4 in IFNgamma-stimulated mouse RAW264.7 cells assessed as effect on ratio of phosphorylated p38 to total p38 at 100 uM measured after 60 mins by Western blot analysis relative to beta-actin (reference value: 1.9)
[17] = system: RAW264.7; assay: Inhibition of IFNgamma binding to IFNGR in LPS-stimulated mouse RAW264.7 cells assessed as effect on ratio of phosphorylated Stat1 to total Stat1 at 100 uM measured after 30 mins by Western blot analysis relative to beta-actin (reference value: 1.9)
[18] = biological target: T1, Toll-like receptor 4 (Mus musculus); assay: Inhibition of LPS binding to TLR4 in IFNgamma-stimulated mouse RAW264.7 cells assessed as effect on ratio of phosphorylated ERK to total ERK at 100 uM measured after 60 mins by Western blot analysis relative to beta-actin (reference value: 3)
[19] = biological target: T1, Toll-like receptor 4 (Mus musculus); assay: Inhibition of LPS binding to TLR4 in IFNgamma-stimulated mouse RAW264.7 cells assessed as effect on ratio of phosphorylated p38 to total p38 at 100 uM measured after 30 mins by Western blot analysis relative to beta-actin (reference value: 4.8)

C=C(C)[C@@H]1CC[C@]2(C)[C@H](CC=C3[C@@H]4CC(C)(C)CC[C@]4(C)CC[C@]32C(=O)O)[C@@]1(C)CCC(=O)O
fold change (FC) [1]: 1
inhibition [2]: Active
fold change (FC) [3]: 0.9
fold change (FC) [4]: 0.6
fold change (FC) [5]: 1
fold change (FC) [6]: 1
fold change (FC) [7]: 1
fold change (FC) [8]: 2.2
fold change (FC) [9]: 0.8
fold change (FC) [10]: 1.6
fold change (FC) [11]: 1.1
fold change (FC) [12]: 4
inhibition [13]: Active
fold change (FC) [14]: 1.2
inhibition [15]: inactive
fold change (FC) [16]: 2
fold change (FC) [17]: 1.2
fold change (FC) [18]: 2.2
fold change (FC) [19]: 4
